Test results as given in the supplement of paper PMC10307832.

Tests used:
Experiment in all cases: relative viability (nuclei count vs DMSO), 5 days (fraction); higher = more cells survive
BEN = system: BEN
Outline: (§1)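 Values are medians from duplicate plates. Each reflects relative viability, defined as the nuclei count of treated wells over that of vehicle wells. Lung cancer cell lines in 1536-well plates were pin-tool dosed one day after seeding with one drug alone or with a fixed anchor-drug dose plus five library-drug doses (not always all listed) in √10 steps, then fixed, stained and imaged at 4× after 5 days.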

CAL-12T = system: CAL-12T
Outline: as §1

COR-L23 = system: COR-L23
Outline: as §1

HCC-44 = system: HCC-44
Outline: as §1

LU99A = system: LU99A
Outline: as §1

LXF-289 = system: LXF-289
Outline: as §1

NCI-H1355 = system: NCI-H1355
Outline: as §1

NCI-H1437 = system: NCI-H1437
Outline: as §1

NCI-H1563 = system: NCI-H1563
Outline: as §1

NCI-H1650 = system: NCI-H1650
Outline: as §1

NCI-H1651 = system: NCI-H1651
Outline: as §1

NCI-H1666 = system: NCI-H1666
Outline: as §1

NCI-H1755 = system: NCI-H1755
Outline: as §1

NCI-H1792 = system: NCI-H1792
Outline: as §1

NCI-H1993 = system: NCI-H1993
Outline: as §1

NCI-H2085 = system: NCI-H2085
Outline: as §1

NCI-H2087 = system: NCI-H2087
Outline: as §1

NCI-H2170 = system: NCI-H2170
Outline: as §1

NCI-H460 = system: NCI-H460
Outline: as §1

NCI-H520 = system: NCI-H520
Outline: as §1

PC-14 = system: PC-14
Outline: as §1

SK-MES-1 = system: SK-MES-1
Outline: as §1

CCNC(=O)c1noc(-c2cc(C(C)C)c(O)cc2O)c1-c1ccc(CN2CCOCC2)cc1 [Luminespib] + CS(=O)(=O)N1CCN(Cc2cc3nc(-c4cccc5[nH]ncc45)nc(N4CCOCC4)c3s2)CC1 [Pictilisib] (partner 1 µM)
relative viability (BEN; first compound 0.002 µM): 0.514 | relative viability (BEN; first compound 0.006325 µM): 0.597 | relative viability (BEN; first compound 0.02 µM): 0.332 | relative viability (BEN; first compound 0.06325 µM): 0.266 | relative viability (BEN; first compound 0.2 µM): 0.191 | relative viability (CAL-12T; first compound 0.002 µM): 0.336 | relative viability (CAL-12T; first compound 0.006325 µM): 0.395 | relative viability (CAL-12T; first compound 0.02 µM): 0.25 | relative viability (CAL-12T; first compound 0.06325 µM): 0.111 | relative viability (CAL-12T; first compound 0.2 µM): 0.143 | relative viability (COR-L23; first compound 0.002 µM): 0.856 | relative viability (COR-L23; first compound 0.006325 µM): 0.633 | relative viability (COR-L23; first compound 0.02 µM): 0.368 | relative viability (COR-L23; first compound 0.06325 µM): 0.0587 | relative viability (COR-L23; first compound 0.2 µM): 0.0601 | relative viability (HCC-44; first compound 0.002 µM): 0.663 | relative viability (HCC-44; first compound 0.006325 µM): 0.641 | relative viability (HCC-44; first compound 0.02 µM): 0.62 | relative viability (HCC-44; first compound 0.06325 µM): 0.381 | relative viability (HCC-44; first compound 0.2 µM): 0.12 | relative viability (LU99A; first compound 0.002 µM): 0.351 | relative viability (LU99A; first compound 0.006325 µM): 0.36 | relative viability (LU99A; first compound 0.02 µM): 0.226 | relative viability (LU99A; first compound 0.06325 µM): 0.153 | relative viability (LU99A; first compound 0.2 µM): 0.112 | relative viability (LXF-289; first compound 0.002 µM): 0.75 | relative viability (LXF-289; first compound 0.006325 µM): 0.809 | relative viability (LXF-289; first compound 0.02 µM): 0.714 | relative viability (LXF-289; first compound 0.06325 µM): 0.121 | relative viability (LXF-289; first compound 0.2 µM): 0.087 | relative viability (NCI-H1355; first compound 0.002 µM): 0.411 | relative viability (NCI-H1355; first compound 0.006325 µM): 0.458 | relative viability (NCI-H1355; first compound 0.02 µM): 0.255 | relative viability (NCI-H1355; first compound 0.06325 µM): 0.143 | relative viability (NCI-H1355; first compound 0.2 µM): 0.152 | relative viability (NCI-H1437; first compound 0.002 µM): 0.343 | relative viability (NCI-H1437; first compound 0.006325 µM): 0.495 | relative viability (NCI-H1437; first compound 0.02 µM): 0.249 | relative viability (NCI-H1437; first compound 0.06325 µM): 0.133 | relative viability (NCI-H1437; first compound 0.2 µM): 0.0978 | relative viability (NCI-H1563; first compound 0.002 µM): 0.721 | relative viability (NCI-H1563; first compound 0.006325 µM): 0.605 | relative viability (NCI-H1563; first compound 0.02 µM): 0.616 | relative viability (NCI-H1563; first compound 0.06325 µM): 0.525 | relative viability (NCI-H1563; first compound 0.2 µM): 0.551 | relative viability (NCI-H1650; first compound 0.002 µM): 0.593 | relative viability (NCI-H1650; first compound 0.006325 µM): 0.653 | relative viability (NCI-H1650; first compound 0.02 µM): 0.199 | relative viability (NCI-H1650; first compound 0.06325 µM): 0.129 | relative viability (NCI-H1650; first compound 0.2 µM): 0.106 | relative viability (NCI-H1651; first compound 0.002 µM): 0.592 | relative viability (NCI-H1651; first compound 0.006325 µM): 0.608 | relative viability (NCI-H1651; first compound 0.02 µM): 0.403 | relative viability (NCI-H1651; first compound 0.06325 µM): 0.136 | relative viability (NCI-H1651; first compound 0.2 µM): 0.162 | relative viability (NCI-H1666; first compound 0.002 µM): 0.423 | relative viability (NCI-H1666; first compound 0.006325 µM): 0.375 | relative viability (NCI-H1666; first compound 0.02 µM): 0.315 | relative viability (NCI-H1666; first compound 0.06325 µM): 0.235 | relative viability (NCI-H1666; first compound 0.2 µM): 0.145 | relative viability (NCI-H1755; first compound 0.002 µM): 0.399 | relative viability (NCI-H1755; first compound 0.006325 µM): 0.372 | relative viability (NCI-H1755; first compound 0.02 µM): 0.351 | relative viability (NCI-H1755; first compound 0.06325 µM): 0.136 | relative viability (NCI-H1755; first compound 0.2 µM): 0.105 | relative viability (NCI-H1792; first compound 0.002 µM): 0.302 | relative viability (NCI-H1792; first compound 0.006325 µM): 0.273 | relative viability (NCI-H1792; first compound 0.02 µM): 0.13 | relative viability (NCI-H1792; first compound 0.06325 µM): 0.124 | relative viability (NCI-H1792; first compound 0.2 µM): 0.0905 | relative viability (NCI-H1993; first compound 0.002 µM): 0.85 | relative viability (NCI-H1993; first compound 0.006325 µM): 0.836 | relative viability (NCI-H1993; first compound 0.02 µM): 0.744 | relative viability (NCI-H1993; first compound 0.06325 µM): 0.787 | relative viability (NCI-H1993; first compound 0.2 µM): 0.643 | relative viability (NCI-H2085; first compound 0.002 µM): 0.448 | relative viability (NCI-H2085; first compound 0.006325 µM): 0.511 | relative viability (NCI-H2085; first compound 0.02 µM): 0.354 | relative viability (NCI-H2085; first compound 0.06325 µM): 0.51 | relative viability (NCI-H2085; first compound 0.2 µM): 0.28 | relative viability (NCI-H2087; first compound 0.002 µM): 0.908 | relative viability (NCI-H2087; first compound 0.006325 µM): 0.776 | relative viability (NCI-H2087; first compound 0.02 µM): 0.663 | relative viability (NCI-H2087; first compound 0.06325 µM): 0.2 | relative viability (NCI-H2087; first compound 0.2 µM): 0.157 | relative viability (NCI-H2170; first compound 0.002 µM): 0.304 | relative viability (NCI-H2170; first compound 0.006325 µM): 0.313 | relative viability (NCI-H2170; first compound 0.02 µM): 0.223 | relative viability (NCI-H2170; first compound 0.06325 µM): 0.165 | relative viability (NCI-H2170; first compound 0.2 µM): 0.155 | relative viability (NCI-H460; first compound 0.002 µM): 0.35 | relative viability (NCI-H460; first compound 0.006325 µM): 0.243 | relative viability (NCI-H460; first compound 0.02 µM): 0.372 | relative viability (NCI-H460; first compound 0.06325 µM): 0.116 | relative viability (NCI-H460; first compound 0.2 µM): 0.0892 | relative viability (NCI-H520; first compound 0.002 µM): 0.298 | relative viability (NCI-H520; first compound 0.006325 µM): 0.334 | relative viability (NCI-H520; first compound 0.02 µM): 0.209 | relative viability (NCI-H520; first compound 0.06325 µM): 0.176 | relative viability (NCI-H520; first compound 0.2 µM): 0.196 | relative viability (PC-14; first compound 0.002 µM): 0.698 | relative viability (PC-14; first compound 0.006325 µM): 0.588 | relative viability (PC-14; first compound 0.02 µM): 0.194 | relative viability (PC-14; first compound 0.06325 µM): 0.0484 | relative viability (PC-14; first compound 0.2 µM): 0.0383 | relative viability (SK-MES-1; first compound 0.002 µM): 0.36 | relative viability (SK-MES-1; first compound 0.006325 µM): 0.418 | relative viability (SK-MES-1; first compound 0.02 µM): 0.271 | relative viability (SK-MES-1; first compound 0.06325 µM): 0.114 | relative viability (SK-MES-1; first compound 0.2 µM): 0.106
